Reference: US9714225B2, “Processes for the preparation of lorcaserin” (CADILA HEALTHCARE LIMITED, priority 2013, dated 2017)
Counter-ions that a name gives are not always drawn.

Experiments:
[1] = Stability of crystalline Form I of lorcaserin hydrochloride stored packed for at least 3 months; format: physicochemical; details: 25° C./60% RH and 40° C./75% RH
Protocol: The crystalline Form I of lorcaserin hydrochloride having less than 0.5% water as manufactured by the process of the present invention was subjected to stability for at least 3 months at 25° C./60% RH or at about 40° C./75% RH.
In a further aspect, the stable crystalline Form I of lorcaserin hydrochloride can be stored under nitrogen atmosphere and packed in a double polythene bag which is either heat sealed or twisted and tied with a thread (primary packing). The primary packing containing the crystalline Form I of lorcaserin hydrochloride can be kept inside a black color polyethylene bag containing a desiccant (molecular sieves) which is either heat sealed or twisted and tied, and the above double polyethylene bags may further be placed inside a triple laminated bag, optionally containing a desiccant which is either heat sealed or twisted and tied. Finally, the triple laminated bag can be kept inside a closed high density polyethylene (HDPE) container and stored in a controlled environment chamber at 25° C. and/or 40° C.

[2] = cited from earlier work
[3] = 2 Months, LDPE bag closed with a heat seal (Table 1)
[4] = 2 Months, LDPE bag closed with a twist and tie (Table 2)
[5] = 3 Months, LDPE bag closed with a heat seal (Table 1)
[6] = 3 Months, LDPE bag closed with a twist and tie (Table 2)

C[C@H]1CNCCc2ccc(Cl)cc21.Cl [(R)-8-chloro-1-methyl-2,3,4,5-tetrahydro-1H-3-benzazepine hydrochloride]
Water (%) ([1]; 1 Month, LDPE bag closed with a heat seal (Table 1), specification Less than 0.5% w/w): 0.31%
X-Ray Diffraction ([1]; 1 Month, LDPE bag closed with a heat seal (Table 1), specification: should confirm the Form-I): Form I
Water (%) ([1]; 1 Month, LDPE bag closed with a twist and tie (Table 2), specification Less than 0.5% w/w): 0.31%
X-Ray Diffraction ([1]; 1 Month, LDPE bag closed with a twist and tie (Table 2), specification: should confirm the Form-I): Form I
Description ([1]; 1 Month, LDPE bag purged with nitrogen closed with a heat seal (Table 1), specification White to off-white): off-
Description ([1]; 1 Month, LDPE bag purged with nitrogen closed with a twist and tie (Table 2), specification White to off-white): off-
Description [1, 3]: off-
Water (%) [1, 3]: 0.35%
X-Ray Diffraction [1, 3]: Form I
Description [1, 4]: off-
Water (%) [1, 4]: 0.35%
X-Ray Diffraction [1, 4]: Form I
Description [1, 5]: off-white
Water (%) [1, 5]: 0.35%
X-Ray Diffraction [1, 5]: Form I
Description [1, 6]: off-white
Water (%) [1, 6]: 0.35%
X-Ray Diffraction [1, 6]: Form I
moisture adsorbed (calculated) ([2]; DVS, between about 40 and about 80% RH): about 3.8%
relative humidity (RH) above which moisture is readily adsorbed ([2]; DVS): 40-60%
crystalline form by XRPD after the DVS cycle [2]: conversion to the hemihydrate (Form III)

C[C@H]1CNCCc2ccc(Cl)cc21 [Form III, (R)-8-chloro-1-methyl-2,3,4,5-tetrahydro-1H-3-benzazepine hydrochloride hemihydrate]
water adsorbed ([2]; DVS, at 90% RH): less than 0.5%
crystalline form by XRPD after the DVS cycle [2]: no change in crystalline form
